Experimental data: patent publication US7318939B2 (Vita Green Health Products Co., Ltd., priority 2006, dated 2008)
Several values for one entry are separate records, joined by “and”; a condition that tells them apart may be missing. Equal entries are not always repeated. Structures can show the parent of a compound that is named as a salt.

System: male CD1 mice
Experiment: Anti-depressant activity: forced swimming test in mice
Assay type: in vivo
Conditions: 30 mg/kg ip
Text: A depressed state can be induced in mice by forcing them to swim in a narrow cylinder from which they cannot escape. After an initial period of vigorous activity, the mice adopt a characteristic immobile posture which is readily identifiable.
Fifty-five male CD1 mice weighing 20-25 g at the start of the study were obtained from Charles River Laboratories Espafia (Barcelona, Spain). These mice underwent a prior acclimatization period of 6 days before the start of the experimental work, during which they underwent a veterinary examination in order to assure their good health.
The mice were allotted at random to five groups, each consisting of ten animals. The rest of the animals (one per group) were kept as reserve (these animals are not taken into account in the final results). The experimental design is described in the Table 7 below.
The mice began a fasting period of approximately 6 hours before starting the treatments. At the beginning of the test, the corresponding treatments were administrated by the assigned route at a volume of 10 mL/kg. The test item was administrated at three dose levels of 100, 200 and 300 mg/kg by oral route (gastric gavage or po). The reference item was administrated at the dose level of 30 mg/kg by intraperitoneal route or ip. The Control group only received the vehicle (water for injection) orally (po) by gastric gavage.
Six minutes after the administration of the treatments, each mouse was dropped into the cylinder containing water (forcing it to swim) and left there for 6 minutes, the testing time. The time of immobility of the animal was recorded. A mouse was considered immobile when it ceased struggling and remained floating motionless in the water making only those movements necessary to keep its head above water. […] Finally, once the test was over, the animals were sacrificed by cervical dislocation.

**Q.** `CN(C)CCCN1c2ccccc2CCc2ccccc21` [Imipramine HCl, Imipramine hydrochloride] was tested. Which “% decrease versus Control (time of immobility)” value did it give?
**A.** The value was 56.2%.

**Q.** And the “Time of immobility (s) individual values” (animal no. 1-10, hydrochloride)?
**A.** Its value is 90 s and 140 s and 64 s and 51 s and 3 s and 91 s and 37 s.

**Q.** And the “Time of immobility (s), mean” value (last 4 min of 6 min test, Mean ± SEM, n = 10, hydrochloride)?
**A.** Its value is 80.8 ± 13.14 s and 80.8 s.
